From US20260152751A1, “INTERFERING RNA FOR INHIBITING JAK1 GENE EXPRESSION AND USE THEREOF” (Jenkem Technology Co., Ltd. (BEIJING), priority 2024, published 2026)

Tested on: JAK1 gene
Test: siRNA screening: qPCR of JAK1 relative expression in transfected 293T cells
Format: cell-based, human
Conditions: siRNA 50 nM, 48 h after transfection, GAPDH reference, siNC = 100.00
Method: One day prior to transfection, 293T cells were seeded into a 24-well cell culture plate at 1×10^5 cells/well, and the culture medium was 500 μL of DMEM containing 10% FBS and 1% penicillin-streptomycin. Three replicate wells were made for each group. The culture plate was placed in an incubator with 5% CO2 at 37° C. for 24 h to allow the cells to adhere to the wall. On the day of transfection, the culture medium was changed to 450 μL of DMEM culture medium without antibiotics (containing 10% FBS). The siRNAs were diluted with 25 μL of Opti-MEM culture medium, and the control group was siNC at the same concentration; a Lipofectamine™RNAiMAX transfection reagent (Lip) was diluted with another 25 μL of Opti-MEM culture medium, and the mixture was left to stand at room temperature for 5 min; and the two dilutions were uniformly mixed and left to stand at room temperature for 5 min. 50 μL of the mixed solution described above was added to each well to obtain a final transfection volume of 500 μL, and the working concentration of the siRNA was 50 nM. After the cells were further cultured in an incubator with 5% CO2 at 37° C. for 48 h, the total RNA of the cells was extracted.
RNA was extracted using Eastep™ Super total RNA extraction kit, with the detailed procedures as follows:
1) 300 μL of RNA lysis solution and 300 μL of RNA diluent were added into each well of the 24-well cell culture plate, and the mixture was uniformly mixed and subsequently transferred to a 1.5 mL centrifuge tube. The mixture was centrifuged at 14000 g for 10 min, and the supernatant was carefully pipetted into a new 1.5 mL centrifuge tube.
2) A 0.5-fold volume of absolute ethanol was added, and the mixture was uniformly mixed by allowing the tube to be repeatedly upside down 15-20 times. Subsequently, the mixture was transferred to a centrifuge column and centrifuged at 12000 g for 1 min. The filtrate was discarded.
3) 600 μL of RNA wash buffer was added, and the mixture was centrifuged at 12000 g for 1 min. The filtrate was discarded.
4) 50 μL of DNase I incubation buffer was added, followed by DNA digestion at room temperature for 15 min.
5) 600 μL of RNA wash buffer was added, the mixture was centrifuged at 12000 g for 1 min, and the filtrate was discarded. This procedure was repeated once. Subsequently, the mixture was centrifuged at 14000 g for 2 min to remove the residual RNA wash buffer, and then the centrifuge column was placed in a collection tube.
6) A proper amount of RNase-free H2O was added, and the mixture was left to stand for 15 min at room temperature, followed by centrifugation at 14000 g for 1 min. The RNA quality and concentration were detected using NanoDrop™. The extracted RNA was incubated at 70° C. for 5 min and immediately placed in an ice bath for 5 min for later use.
1) The RNA was reverse-transcribed into a cDNA template using the All-in-One First-Strand Synthesis MasterMix (LABLEAD, Cat. No.: F0202) kit. The reaction system was established according to Table 2, where all components were mixed uniformly and centrifuged to collect the liquid at the bottom of a tube, and the PCR program was run according to the settings of 37° C. for 2 min, 55° C. for 15 min, and 85° C. for 5 min, thereby giving the cDNA template.
2) The gene expression level was detected using the Taq SYBR® Green qPCR Premix (LABLEAD, Cat. No.: R0202) kit, and the qPCR system was established according to Table 3. All components were mixed uniformly and centrifuged to collect the liquid at the bottom of a tube, and the PCR program was run according to the following settings: • Step1: 95° C. 30 s; • Step2: 95° C. 10 s; • Step3: 60° C. 30 s+Plate Read; • Step4: Go to Step2, 40 times; • Step5: Melt Curve 65 to 95° C., increment 0.5° C., for 5 s+Plate Read.
GAPDH was used as an endogenous reference to detect the relative expression level of JAK1 gene, and the sequences of the primers used are as follows: […]

Substance | Relative expression level of JAK1, Mean value (Mean)
siJAK1-474: siRNA targeting JAK1; sense strand SEQ ID NO: 15 dTdT, antisense strand SEQ ID NO: 29 dTdT (sense GAAUAAAUGCAGUAUCUAA; antisense UUAGAUACUGCAUUUAUUC; listed as RNA, chemistry not fully specified) | 20.24
siJAK1-1131: siRNA targeting JAK1; sense strand SEQ ID NO: 17, antisense strand SEQ ID NO: 31 (sense GCGAUAUAUUCCAGAAACAUU; antisense UGUUUCUGGAAUAUAUCGCUU; listed as RNA, chemistry not fully specified) | 23.55
siJAK1-2200: siRNA targeting JAK1; sense strand SEQ ID NO: 18 dTdT, antisense strand SEQ ID NO: 32 dTdT (sense GUUUCGAUCGGAUCCUCAA; antisense UUGAGGAUCCGAUCGAAAC; listed as RNA, chemistry not fully specified) | 34.77
siJAK1-2714: siRNA targeting JAK1; sense strand SEQ ID NO: 19 dTdT, antisense strand SEQ ID NO: 33 dTdT (sense GGUGCUGUCUAGGCAAGAA; antisense UUCUUGCCUAGACAGCACC; listed as RNA, chemistry not fully specified) | 19.12
siJAK1-3630: siRNA targeting JAK1; sense strand SEQ ID NO: 21 dTdT, antisense strand SEQ ID NO: 35 dTdT (sense GAAUGUUUAAUGCAAUCUA; antisense UAGAUUGCAUUAAACAUUC; listed as RNA, chemistry not fully specified) | 25.58
siJAK1-4096: siRNA targeting JAK1; sense strand SEQ ID NO: 22 dTdT, antisense strand SEQ ID NO: 36 dTdT (sense GGCACACUGUAGUGCUUAA; antisense UUAAGCACUACAGUGUGCC; listed as RNA, chemistry not fully specified) | 38.56
siJAK1-4359: siRNA targeting JAK1; sense strand SEQ ID NO: 23, antisense strand SEQ ID NO: 37 (sense CACAUUAAUCAUAGAUAAAGA; antisense UUUAUCUAUGAUUAAUGUGCC; listed as RNA, chemistry not fully specified) | 31.11
siJAK1-4389: siRNA targeting JAK1; sense strand SEQ ID NO: 24, antisense strand SEQ ID NO: 38 (sense GGACUUAGCCCUCAAAUUUCA; antisense AAAUUUGAGGGCUAAGUCCAU; listed as RNA, chemistry not fully specified) | 27.56
siJAK1-4410: siRNA targeting JAK1; sense strand SEQ ID NO: 25 dTdT, antisense strand SEQ ID NO: 39 dTdT (sense CAGUAUCUAUACAGUACUA; antisense UAGUACUGUAUAGAUACUG; listed as RNA, chemistry not fully specified) | 24.41
siJAK1-4627: siRNA targeting JAK1; sense strand SEQ ID NO: 26 dTdT, antisense strand SEQ ID NO: 40 dTdT (sense GCAUGUUAAUUCUCAAGAA; antisense UUCUUGAGAAUUAACAUGC; listed as RNA, chemistry not fully specified) | 38.64
siJAK1-5026: siRNA targeting JAK1; sense strand SEQ ID NO: 27 dTdT, antisense strand SEQ ID NO: 41 dTdT (sense GAUUCAAUGUGAACGAUUA; antisense UAAUCGUUCACAUUGAAUC; listed as RNA, chemistry not fully specified) | 32.40
